ChEMBL document CHEMBL4610054, “Design, synthesis, and structure-activity relationship studies of novel triazole agents with strong antifungal activity against Aspergillus fumigatus” (2020)
Values after ≈ are worked out from the molar mass of the structure shown.

Assays:
Format in all cases: functional
Candida albicans [1] = test: Antifungal activity against Candida albicans SC5314 by NCCLS protocol based broth microdilution assay
Aspergillus fumigatus = test: Antifungal activity against Aspergillus fumigatus 7544 by NCCLS protocol based broth microdilution assay
Cryptococcus neoformans = test: Antifungal activity against Cryptococcus neoformans 32605 by NCCLS protocol based broth microdilution assay
Nannizzia gypsea = test: Antifungal activity against Microsporum gypseum CMCC by NCCLS protocol based broth microdilution assay
Candida albicans [2] = test: Antifungal activity against Candida albicans Y0109 by NCCLS protocol based broth microdilution assay
Nakaseomyces glabratus = test: Antifungal activity against Candida glabrata 537 by NCCLS protocol based broth microdilution assay
Candida parapsilosis = test: Antifungal activity against Candida parapsilosis 22019 by NCCLS protocol based broth microdilution assay; details: Lodderomyces parapsilosis
Candida albicans [3] = test: Antifungal activity against fluconazole-resistant Candida albicans isolate 103 by NCCLS protocol based broth microdilution method
Candida albicans [4] = test: Antifungal activity against fluconazole-resistant Candida albicans isolate 100 by NCCLS protocol based broth microdilution method

Structure (SMILES)	MIC (Candida albicans [1]) [µg/mL]	MIC (Aspergillus fumigatus) [µg/mL]	MIC (Cryptococcus neoformans) [µg/mL]	MIC (Nannizzia gypsea) [µg/mL]	MIC (Candida albicans [2]) [µg/mL]	MIC (Nakaseomyces glabratus) [µg/mL]	MIC (Candida parapsilosis) [µg/mL]	MIC (Candida albicans [3]) [µg/mL]	MIC (Candida albicans [4]) [µg/mL]
C[C@@H](n1nnc2ccc(Br)cc2c1=O)[C@](O)(Cn1cncn1)c1ccc(F)cc1F	0.125 (≈ 0.262 µM)	> 64	2 (≈ 4.19 µM)						
C[C@@H](n1nnc2cc(C(F)(F)F)ccc2c1=O)[C@](O)(Cn1cncn1)c1ccc(F)cc1F	0.0156 (≈ 0.0334 µM)	4 (≈ 8.58 µM)	0.125 (≈ 0.268 µM)	2 (≈ 4.29 µM)	0.0156 (≈ 0.0334 µM)	0.0313 (≈ 0.0671 µM)	0.0313 (≈ 0.0671 µM)		
C[C@@H](n1nnc2cc(F)ccc2c1=O)[C@](O)(Cn1cncn1)c1ccc(F)cc1F	0.0156 (≈ 0.0375 µM)	1 (≈ 2.4 µM)	0.25 (≈ 0.6 µM)	2 (≈ 4.8 µM)	0.0156 (≈ 0.0375 µM)	0.0313 (≈ 0.0752 µM)	0.0313 (≈ 0.0752 µM)	64 (≈ 154 µM)	32 (≈ 76.9 µM)
Cc1ccc2c(=O)n([C@H](C)[C@](O)(Cn3cncn3)c3ccc(F)cc3F)nnc2c1	0.0156 (≈ 0.0378 µM)	2 (≈ 4.85 µM)	0.125 (≈ 0.303 µM)	2 (≈ 4.85 µM)	0.0156 (≈ 0.0378 µM)	0.0156 (≈ 0.0378 µM)	0.0313 (≈ 0.0759 µM)		
C[C@@H](n1nnc2c(F)cccc2c1=O)[C@](O)(Cn1cncn1)c1ccc(F)cc1F	0.5 (≈ 1.2 µM)	> 64	0.0313 (≈ 0.0752 µM)						
C[C@@H](n1nnc2cc(I)ccc2c1=O)[C@](O)(Cn1cncn1)c1ccc(F)cc1F	0.0156 (≈ 0.0298 µM)	1 (≈ 1.91 µM)	0.125 (≈ 0.238 µM)	1 (≈ 1.91 µM)	0.0156 (≈ 0.0298 µM)	0.0313 (≈ 0.0597 µM)	0.0625 (≈ 0.119 µM)	> 64	> 64
C[C@@H](n1nnc2cc([N+](=O)[O-])ccc2c1=O)[C@](O)(Cn1cncn1)c1ccc(F)cc1F	0.0156 (≈ 0.0352 µM)	4 (≈ 9.02 µM)	0.25 (≈ 0.564 µM)	4 (≈ 9.02 µM)	0.0156 (≈ 0.0352 µM)	0.0313 (≈ 0.0706 µM)	0.0313 (≈ 0.0706 µM)		
C[C@@H](n1nnc2cc(F)c(F)cc2c1=O)[C@](O)(Cn1cncn1)c1ccc(F)cc1F	0.0313 (≈ 0.0721 µM)	2 (≈ 4.6 µM)	0.5 (≈ 1.15 µM)	1 (≈ 2.3 µM)	0.0156 (≈ 0.0359 µM)	0.0625 (≈ 0.144 µM)	0.0313 (≈ 0.0721 µM)		
C[C@@H](n1nnc2ccc(Cl)cc2c1=O)[C@](O)(Cn1cncn1)c1ccc(F)cc1F	0.0313 (≈ 0.0723 µM)	> 64	0.5 (≈ 1.16 µM)						
C[C@@H](n1nnc2ccc(I)cc2c1=O)[C@](O)(Cn1cncn1)c1ccc(F)cc1F	0.125 (≈ 0.238 µM)	32 (≈ 61 µM)	0.5 (≈ 0.954 µM)						
C[C@@H](n1nnc2cc(Cl)ccc2c1=O)[C@](O)(Cn1cncn1)c1ccc(F)cc1F	0.0156 (≈ 0.036 µM)	0.25 (≈ 0.578 µM)	0.0313 (≈ 0.0723 µM)	0.25 (≈ 0.578 µM)	0.0156 (≈ 0.036 µM)	0.0156 (≈ 0.036 µM)	0.0156 (≈ 0.036 µM)	2 (≈ 4.62 µM)	8 (≈ 18.5 µM)
C[C@@H](n1nnc2c(ccc3ccccc32)c1=O)[C@](O)(Cn1cncn1)c1ccc(F)cc1F	0.125 (≈ 0.279 µM)	> 64	0.5 (≈ 1.11 µM)						
C[C@@H](n1nnc2cccc(Br)c2c1=O)[C@](O)(Cn1cncn1)c1ccc(F)cc1F	0.25 (≈ 0.524 µM)	32 (≈ 67 µM)	0.0625 (≈ 0.131 µM)						
C[C@@H](n1nnc2cccc(F)c2c1=O)[C@](O)(Cn1cncn1)c1ccc(F)cc1F	0.5 (≈ 1.2 µM)	> 64	0.0625 (≈ 0.15 µM)						
C[C@@H](n1nnc2cc(Br)ccc2c1=O)[C@](O)(Cn1cncn1)c1ccc(F)cc1F	0.0156 (≈ 0.0327 µM)	0.5 (≈ 1.05 µM)	0.0625 (≈ 0.131 µM)	0.5 (≈ 1.05 µM)	0.0156 (≈ 0.0327 µM)	0.0156 (≈ 0.0327 µM)	0.0313 (≈ 0.0656 µM)	32 (≈ 67 µM)	16 (≈ 33.5 µM)
C[C@@H](n1nnc2ccccc2c1=O)[C@](O)(Cn1cncn1)c1ccc(F)cc1F	0.0313 (≈ 0.0786 µM)	4 (≈ 10 µM)	0.25 (≈ 0.628 µM)	2 (≈ 5.02 µM)	0.0156 (≈ 0.0392 µM)	0.0625 (≈ 0.157 µM)	0.0313 (≈ 0.0786 µM)		
COc1ccc2c(=O)n([C@H](C)[C@](O)(Cn3cncn3)c3ccc(F)cc3F)nnc2c1	0.0156 (≈ 0.0364 µM)	2 (≈ 4.67 µM)	0.125 (≈ 0.292 µM)	2 (≈ 4.67 µM)	0.0156 (≈ 0.0364 µM)	0.0156 (≈ 0.0364 µM)	0.0313 (≈ 0.0731 µM)		
C[C@@H](n1nnc2ccc(F)cc2c1=O)[C@](O)(Cn1cncn1)c1ccc(F)cc1F	0.0625 (≈ 0.15 µM)	16 (≈ 38.4 µM)	0.25 (≈ 0.6 µM)						
C[C@@H](n1nnc2c(Cl)cccc2c1=O)[C@](O)(Cn1cncn1)c1ccc(F)cc1F	0.25 (≈ 0.578 µM)	> 64	0.25 (≈ 0.578 µM)						
C[C@@H](n1nnc2c(Br)cccc2c1=O)[C@](O)(Cn1cncn1)c1ccc(F)cc1F	0.5 (≈ 1.05 µM)	> 64	0.25 (≈ 0.524 µM)						
C[C@@H](n1nnc2cccc(Cl)c2c1=O)[C@](O)(Cn1cncn1)c1ccc(F)cc1F	0.25 (≈ 0.578 µM)	32 (≈ 73.9 µM)	0.0625 (≈ 0.144 µM)						
C[C@@H](n1nnc2ccc([N+](=O)[O-])cc2c1=O)[C@](O)(Cn1cncn1)c1ccc(F)cc1F	0.5 (≈ 1.13 µM)	> 64	2 (≈ 4.51 µM)						
C[C@@H](n1nnc2cc(Cl)c(F)cc2c1=O)[C@](O)(Cn1cncn1)c1ccc(F)cc1F	0.125 (≈ 0.277 µM)	8 (≈ 17.7 µM)	0.25 (≈ 0.555 µM)						
COc1ccc2nnn([C@H](C)[C@](O)(Cn3cncn3)c3ccc(F)cc3F)c(=O)c2c1	0.0625 (≈ 0.146 µM)	32 (≈ 74.7 µM)	1 (≈ 2.33 µM)						
Cc1ccc2nnn([C@H](C)[C@](O)(Cn3cncn3)c3ccc(F)cc3F)c(=O)c2c1	0.0625 (≈ 0.152 µM)	16 (≈ 38.8 µM)	0.25 (≈ 0.606 µM)						
C[C@@H](n1nnc2ccc(C(F)(F)F)cc2c1=O)[C@](O)(Cn1cncn1)c1ccc(F)cc1F	0.25 (≈ 0.536 µM)	> 64	2 (≈ 4.29 µM)						
C[C@@H](n1cnc2cc(Cl)ccc2c1=O)[C@](O)(Cn1cncn1)c1ccc(F)cc1F [ALBACONAZOLE]	0.0313 (≈ 0.0725 µM)	0.25 (≈ 0.579 µM)	0.0313 (≈ 0.0725 µM)	1 (≈ 2.32 µM)	0.0156 (≈ 0.0361 µM)	0.0625 (≈ 0.145 µM)	0.0156 (≈ 0.0361 µM)	4 (≈ 9.26 µM)	8 (≈ 18.5 µM)
OC(Cn1cncn1)(Cn1cncn1)c1ccc(F)cc1F [FLUCONAZOLE]	0.5 (≈ 1.63 µM)	> 64	0.5 (≈ 1.63 µM)	32 (≈ 104 µM)	0.5 (≈ 1.63 µM)	2 (≈ 6.53 µM)	1 (≈ 3.27 µM)	> 64	> 64
C[C@@H](c1ncncc1F)[C@](O)(Cn1cncn1)c1ccc(F)cc1F [VORICONAZOLE]	0.0313 (≈ 0.0896 µM)	0.25 (≈ 0.716 µM)	0.0625 (≈ 0.179 µM)	0.25 (≈ 0.716 µM)	0.0156 (≈ 0.0447 µM)	0.0156 (≈ 0.0447 µM)	0.0156 (≈ 0.0447 µM)	> 64	> 64
